Here are results for 19 compounds from patent US9309242B2, “Substituted pyrido[2,3-b]pyrazines as FGFR kinase inhibitors” (priority 2011, dated 2016).

For one data set, the target named is KDR (h) (Homo sapiens, UniProt P35968). The data set can be described thus: KDR (VEGFR2) (enzymatic assay), TR-FRET. In kind it is biochemical. The following applies: average values if tested multiple times, read-out: VEGFR 2 (KDR) pIC50 (converted). In short, it runs like this:
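3 μM ATP, 500 nM Btn-Flt3 substrate, 150 ng/ml kinase; HEPES pH 7.5 with MnCl2, DTT, vanadate, Triton; 1% DMSO. 120 min RT. Stop: EDTA + Eu-anti-P-Tyr + SA-XL-665, 60 min RT. Readout TR-FRET ex340/em620, 655 nm, RFU.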

Data set [1] relates to Ba/F3-FGFR1-transfected cells. The data set can be described thus: Ba/F3-FGFR1 (plus IL3) cellular proliferation assay, counterscreen with 10 ng/ml murine IL3. In kind it is cell-based. The following applies: read-out: BAF3-FGFR1 (PLUS IL3) pIC50 (converted). Summed up:
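Proliferation read-out: resazurin-based Alamar Blue fluorescence (540/590 nm) after 4 h, following 24 h compound treatment of 20000 Ba/F3-FGFR1 cells per well in 10% FBS RPMI at 37° C. IL3 counterscreen used the same protocol plus 10 ng/ml murine IL3.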

In data set [2] the test system is Ba/F3-Flt3-transfected cells. The data set can be described thus: Ba/F3-Flt3 (plus IL3) cellular proliferation assay, counterscreen with 10 ng/ml murine IL3. The following applies: read-out: BAF3_FLT3 (PLUS IL3) pIC50 (converted). In kind it is cell-based. As for the experimental part:
Ba/F3-Flt3 (Minus IL3 or Plus IL3) (Cellular Proliferation Assay)
In a 384 well plate, 100 nl of compound dilution in DMSO was sprayed before adding 50 μl cell culture medium (phenol red free RPMI-1640, 10% FBS, 2 mM L-Glutamine and 50 μg/ml Gentamycin) containing 20000 cells per well of Ba/F3-Flt3-transfected cells. Cells were put in an incubator at 37° C. and 5% CO2. After 24 hours, 10 μl of Alamar Blue solution (0.5 mM K3Fe(CN)6, 0.5 mM K4Fe(CN)6, 0.15 mM Resazurin and 100 mM Phosphate Buffer) was added to the wells, incubated for 4 hours at 37° C. and 5% CO2 before RFU's (Relative Fluorescence Units) (ex. 540 nm., em. 590 nm.) were measured in a fluororescence plate reader.
As a counterscreen the same experiment was performed in the presence of 10 ng/ml murine IL3.

The target of a further data set is FGFR3 (h) (Homo sapiens, UniProt P22607). The data set can be described thus: FGFR3 (enzymatic assay), TR-FRET. In kind it is biochemical. The following applies: average values if tested multiple times, read-out: FGFR 3 pIC50 (converted). The source says:
Time-Resolved Fluorescence Resonance Energy Transfer (TR-FRET) signal (ex340 nm.

The target in the next data set is FGFR1 (h) (Homo sapiens, UniProt P11362). The data set can be described thus: FGFR1 (enzymatic assay), TR-FRET. In kind it is biochemical. The settings on record: average values if tested multiple times, read-out: FGFR 1 pIC50 (converted).
FGFR1 (h), sequence (P11362 22-822): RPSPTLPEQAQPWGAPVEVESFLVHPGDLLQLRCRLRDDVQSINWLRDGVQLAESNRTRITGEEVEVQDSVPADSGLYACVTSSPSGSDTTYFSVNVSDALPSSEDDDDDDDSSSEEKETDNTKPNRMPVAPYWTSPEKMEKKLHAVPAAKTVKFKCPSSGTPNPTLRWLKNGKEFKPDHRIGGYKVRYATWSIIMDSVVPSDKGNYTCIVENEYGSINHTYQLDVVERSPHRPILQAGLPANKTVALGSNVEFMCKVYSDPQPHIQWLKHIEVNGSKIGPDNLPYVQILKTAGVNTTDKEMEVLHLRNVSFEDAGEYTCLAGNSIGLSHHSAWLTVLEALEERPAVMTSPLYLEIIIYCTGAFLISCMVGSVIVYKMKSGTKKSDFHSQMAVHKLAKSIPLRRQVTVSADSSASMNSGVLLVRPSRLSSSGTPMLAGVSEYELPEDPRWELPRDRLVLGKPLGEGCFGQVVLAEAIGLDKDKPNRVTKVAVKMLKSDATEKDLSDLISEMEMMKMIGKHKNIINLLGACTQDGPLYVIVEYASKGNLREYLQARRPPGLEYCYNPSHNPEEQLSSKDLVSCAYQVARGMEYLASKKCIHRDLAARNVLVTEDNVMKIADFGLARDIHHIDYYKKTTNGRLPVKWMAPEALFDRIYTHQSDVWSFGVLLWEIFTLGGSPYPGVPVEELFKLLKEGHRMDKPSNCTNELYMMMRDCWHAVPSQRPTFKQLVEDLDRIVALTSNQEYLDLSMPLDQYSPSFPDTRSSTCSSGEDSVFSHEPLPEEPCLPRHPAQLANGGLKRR
In data set [3] the target is Ba/F3-FGFR4-transfected cells (Homo sapiens, UniProt P22455). The experiment in a line: Ba/F3-FGFR4 cellular proliferation assay, Alamar Blue. Type of data set: cell-based. In short, it runs like this: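 Fluorescence read-out (ex. 540 nm, em. 590 nm) of resazurin-based Alamar Blue after 4 h, following 24 h compound exposure of Ba/F3-FGFR4-transfected cells (20000/well) at 37° C, 5% CO2.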
Ba/F3-FGFR4-transfected cells, sequence (P22455 whole entry, change not shown): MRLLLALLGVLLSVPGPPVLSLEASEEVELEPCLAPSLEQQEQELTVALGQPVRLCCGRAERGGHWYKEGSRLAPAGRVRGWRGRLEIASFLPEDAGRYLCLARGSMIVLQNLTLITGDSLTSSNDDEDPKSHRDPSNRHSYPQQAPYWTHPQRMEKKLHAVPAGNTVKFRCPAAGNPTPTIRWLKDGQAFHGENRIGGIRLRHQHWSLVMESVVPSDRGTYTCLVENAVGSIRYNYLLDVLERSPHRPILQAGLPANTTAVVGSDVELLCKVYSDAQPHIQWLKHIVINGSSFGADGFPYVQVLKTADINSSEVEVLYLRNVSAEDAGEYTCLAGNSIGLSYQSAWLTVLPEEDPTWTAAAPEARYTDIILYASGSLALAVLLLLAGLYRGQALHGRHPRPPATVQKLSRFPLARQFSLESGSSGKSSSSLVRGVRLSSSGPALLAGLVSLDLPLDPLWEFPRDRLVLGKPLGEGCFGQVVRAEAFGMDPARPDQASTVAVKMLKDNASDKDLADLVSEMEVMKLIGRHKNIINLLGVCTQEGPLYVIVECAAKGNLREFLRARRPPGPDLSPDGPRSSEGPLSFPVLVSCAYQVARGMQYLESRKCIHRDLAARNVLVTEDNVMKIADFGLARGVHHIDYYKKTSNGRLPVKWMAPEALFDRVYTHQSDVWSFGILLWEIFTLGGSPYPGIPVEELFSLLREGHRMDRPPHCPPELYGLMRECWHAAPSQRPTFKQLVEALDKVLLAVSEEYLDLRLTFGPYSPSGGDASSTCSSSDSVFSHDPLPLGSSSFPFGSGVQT

The mark [4] stands for this setting: plus IL3 (10 ng/ml murine IL3, counterscreen).

Structures are written as SMILES. Like-named read-outs stand apart in the source and are kept apart here.

FGFR3 (h), sequence (P22607 23-806): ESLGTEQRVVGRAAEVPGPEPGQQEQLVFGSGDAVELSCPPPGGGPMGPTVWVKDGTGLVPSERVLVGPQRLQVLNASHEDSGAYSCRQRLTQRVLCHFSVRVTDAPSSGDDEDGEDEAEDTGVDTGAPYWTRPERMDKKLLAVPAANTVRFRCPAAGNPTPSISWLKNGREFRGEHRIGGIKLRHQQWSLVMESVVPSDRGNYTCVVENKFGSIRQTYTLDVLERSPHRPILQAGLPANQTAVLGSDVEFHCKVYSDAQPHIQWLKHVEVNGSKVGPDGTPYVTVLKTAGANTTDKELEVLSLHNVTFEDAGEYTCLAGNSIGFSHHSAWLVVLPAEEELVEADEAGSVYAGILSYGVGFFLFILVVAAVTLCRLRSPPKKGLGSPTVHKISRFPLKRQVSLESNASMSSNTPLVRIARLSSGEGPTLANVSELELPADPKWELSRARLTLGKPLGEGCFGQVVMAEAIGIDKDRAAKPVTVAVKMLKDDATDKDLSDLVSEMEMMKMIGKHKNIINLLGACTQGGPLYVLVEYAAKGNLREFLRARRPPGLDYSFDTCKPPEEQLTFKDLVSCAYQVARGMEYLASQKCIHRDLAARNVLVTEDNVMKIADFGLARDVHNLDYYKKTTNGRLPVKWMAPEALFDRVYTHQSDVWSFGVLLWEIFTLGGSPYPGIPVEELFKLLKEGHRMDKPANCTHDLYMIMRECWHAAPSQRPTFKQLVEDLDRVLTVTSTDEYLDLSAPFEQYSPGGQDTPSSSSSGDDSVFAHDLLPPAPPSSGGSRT
KDR (h), sequence (P35968 20-1356): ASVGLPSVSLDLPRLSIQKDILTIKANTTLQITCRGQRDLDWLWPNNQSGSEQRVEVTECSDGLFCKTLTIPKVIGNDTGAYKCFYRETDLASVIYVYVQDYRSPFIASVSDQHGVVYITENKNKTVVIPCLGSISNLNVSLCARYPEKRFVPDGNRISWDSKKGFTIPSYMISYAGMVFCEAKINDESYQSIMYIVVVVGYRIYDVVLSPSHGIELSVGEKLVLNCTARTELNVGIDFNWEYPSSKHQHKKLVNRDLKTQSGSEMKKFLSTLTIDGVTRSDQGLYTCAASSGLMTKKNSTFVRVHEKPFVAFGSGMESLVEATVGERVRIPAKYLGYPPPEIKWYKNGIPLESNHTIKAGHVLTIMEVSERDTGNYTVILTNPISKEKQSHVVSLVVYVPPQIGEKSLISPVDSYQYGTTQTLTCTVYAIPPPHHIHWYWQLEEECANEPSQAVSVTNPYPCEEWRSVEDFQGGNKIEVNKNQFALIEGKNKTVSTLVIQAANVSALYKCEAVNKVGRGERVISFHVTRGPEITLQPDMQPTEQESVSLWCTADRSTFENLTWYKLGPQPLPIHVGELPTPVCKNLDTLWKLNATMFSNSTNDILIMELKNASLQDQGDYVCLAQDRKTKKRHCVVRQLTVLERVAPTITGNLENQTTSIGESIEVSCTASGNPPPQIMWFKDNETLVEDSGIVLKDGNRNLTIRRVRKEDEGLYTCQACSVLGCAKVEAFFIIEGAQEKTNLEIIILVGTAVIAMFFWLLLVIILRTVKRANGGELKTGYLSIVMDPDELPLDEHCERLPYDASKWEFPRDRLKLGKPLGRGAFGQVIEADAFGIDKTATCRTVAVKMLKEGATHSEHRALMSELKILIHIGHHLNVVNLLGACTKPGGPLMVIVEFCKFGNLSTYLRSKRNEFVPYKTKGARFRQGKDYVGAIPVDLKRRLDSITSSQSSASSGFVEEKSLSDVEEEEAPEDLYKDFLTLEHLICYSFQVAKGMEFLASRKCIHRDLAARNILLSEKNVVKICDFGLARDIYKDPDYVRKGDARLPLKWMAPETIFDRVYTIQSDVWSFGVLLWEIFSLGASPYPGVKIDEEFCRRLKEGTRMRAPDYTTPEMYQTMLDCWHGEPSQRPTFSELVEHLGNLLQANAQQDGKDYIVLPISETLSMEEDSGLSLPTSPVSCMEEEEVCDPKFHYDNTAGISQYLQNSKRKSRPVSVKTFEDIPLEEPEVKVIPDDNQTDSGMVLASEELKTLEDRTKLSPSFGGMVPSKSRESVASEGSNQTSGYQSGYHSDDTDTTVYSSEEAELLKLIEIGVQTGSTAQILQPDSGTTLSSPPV

Compound `COc1cc(OC)cc(N(CC#Cc2ncccc2OC)c2ccc3ncc(-c4cnn(C)c4)nc3n2)c1` [Compound 26] had a melting point of 190 °C. Also, the IC50 at KDR (h) was 501 nM. Also, in data set [1] (setting [4]), the IC50 was more than 10000 nM. Moreover, the IC50 in data set [2] (setting [4]) was more than 10000 nM. At FGFR3 (h), the IC50 is 39.8 nM. In addition, on FGFR1 (h), the IC50 is 50.1 nM. The “BAF3-FGFR4 pIC50” value in data set [3] is less than 5.
On to `COc1cc(OC)c(F)c(N(CCO)c2ccc3ncc(-c4cnn(C)c4)nc3n2)c1F` [Compound 20], for which the IC50 on KDR (h) is 316 nM; in data set [1] (setting [4]), more than 10000 nM; in data set [2] (setting [4]) it was more than 10000 nM; on FGFR3 (h) it was 1.58 nM; at FGFR1 (h), 25.1 nM. For the same compound, the “BAF3-FGFR4 pIC50” value in data set [3] is 7.63.
Take `CNCCn1/c(=N/c2cc(OC)cc(OC)c2F)ccc2ncc(-c3cnn(C)c3)nc21` [Compound 38]: the IC50 on KDR (h) is 74.1 nM; in data set [1] (setting [4]), more than 10000 nM; in data set [2] (setting [4]), more than 10000 nM; on FGFR3 (h), 4.9 nM; on FGFR1 (h), 2.45 nM. Besides, the “BAF3-FGFR4 pIC50” value in data set [3] amounted to 5.74.
Take `COc1cc(OC)c(F)c(N(Cc2cn(S(=O)(=O)N(C)C)cn2)c2ccc3ncc(-c4cnn(C)c4)nc3n2)c1` [Compound 36]: the IC50 is 27.5 nM on KDR (h); more than 10000 nM in data set [1] (setting [4]); more than 10000 nM in data set [2] (setting [4]); 1.7 nM at FGFR3 (h); 1.55 nM on FGFR1 (h). The “BAF3-FGFR4 pIC50” value in data set [3] worked out at 7.30.
With `COc1cc(OC)c(F)c(N(CCCO)c2ccc3ncc(-c4cnn(C)c4)nc3n2)c1F` (single isomer, unassigned) [Compound 16], the melting point is 208 °C. Moreover, the IC50 on KDR (h) is 100 nM. Besides, the IC50 in data set [1] (setting [4]) was more than 10000 nM. The IC50 in data set [2] (setting [4]) was more than 10000 nM. For the same compound, the IC50 at FGFR3 (h) was 25.1 nM. Also, at FGFR1 (h), the IC50 is 10 nM. Also, in data set [3], the “BAF3-FGFR4 pIC50” value was 7.7.
For the compound `COCC(O)CN(c1cc(OC)cc(OC)c1)c1ccc2ncc(-c3cnn(C)c3)nc2n1` (centres unmarked) [Compound 7], the melting point was 65 °C. The IC50 on KDR (h) is 200 nM. Also, in data set [1] (setting [4]), the IC50 is more than 10000 nM. For the same compound, the IC50 in data set [2] (setting [4]) is more than 10000 nM. Further, on FGFR3 (h), the IC50 was 1.58 nM. The IC50 at FGFR1 (h) is 3.16 nM. In addition, the “BAF3-FGFR4 pIC50” value in data set [3] came out at 6.53.
For `COc1cc(/N=c2\ccc3ncc(-c4cnn(C)c4)nc3n2CCNC(C)C)c(F)c(OC)c1` [Compound 37], the IC50 is 45.7 nM at KDR (h); more than 10000 nM in data set [1] (setting [4]); more than 10000 nM in data set [2] (setting [4]); 8.71 nM at FGFR3 (h); 1.62 nM at FGFR1 (h). Also, the “BAF3-FGFR4 pIC50” value in data set [3] was found to be 6.78.
Take `COc1cc(OC)c(F)c(N(Cc2cnccn2)c2ccc3ncc(-c4cnn(C)c4)nc3n2)c1F` [Compound 10]: the IC50 is 31.6 nM on KDR (h); more than 10000 nM in data set [1] (setting [4]); more than 10000 nM in data set [2] (setting [4]); 63.1 nM at FGFR3 (h); 15.8 nM on FGFR1 (h). Also, the “BAF3-FGFR4 pIC50” value in data set [3] stood at 7.57.
The compound `COc1cc(OC)cc(N(Cc2nc[nH]n2)c2ccc3ncc(-c4cnn(C)c4)nc3n2)c1` [Compound 71] gave a melting point of 238 °C. The IC50 on KDR (h) was 19.1 nM. For the same compound, the IC50 in data set [1] is more than 10000 nM. Besides, the IC50 on FGFR3 (h) is 0.776 nM. Besides, the IC50 at FGFR1 (h) is 1.07 nM. Further, the “BAF3-FGFR4 pIC50” value in data set [3] stood at 7.14.
`CNCCn1/c(=N/c2c(F)cccc2F)ccc2ncc(-c3cnn(C)c3)nc21` [Compound 44] showed a melting point of 80 °C. Moreover, on KDR (h), the IC50 was more than 1000 nM. The IC50 in data set [1] (setting [4]) was more than 10000 nM. In addition, the IC50 at FGFR3 (h) is approximately 794 nM. Besides, the IC50 on FGFR1 (h) is 490 nM. Besides, the “BAF3-FGFR4 pIC50” value in data set [3] was less than 5.
As for `COc1cc(OC)c(F)c(N(CC2COC(=O)N2)c2ccc3ncc(-c4cnn(C)c4)nc3n2)c1` (single isomer, unassigned) [Compound 111], the melting point was 202 °C. The IC50 at KDR (h) is 30.9 nM. For the same compound, the IC50 in data set [1] (setting [4]) is more than 10000 nM. In addition, the IC50 at FGFR3 (h) was 1 nM. Also, the IC50 on FGFR1 (h) is 1.15 nM. In addition, the “BAF3-FGFR4 pIC50” value in data set [3] came to 7.27.
`CNCCN(c1ccc2ncc(-c3cnn(C)c3)nc2n1)c1c(F)c(OC)cc(OC)c1F` [Compound 3] displayed a melting point of 159 °C. At KDR (h), the IC50 was 21.9 nM. In data set [1] (setting [4]), the IC50 was more than 10000 nM. Besides, the IC50 at FGFR3 (h) is 2.57 nM. The IC50 at FGFR1 (h) is 1.35 nM. Further, in data set [3], the “BAF3-FGFR4 pIC50” value is 7.37.
On to `CNCCN(c1ccc2ncc(-c3cnn(C)c3)nc2n1)c1cc(OC)cc(OC)c1F` [Compound 39], for which the IC50 on KDR (h) is 46.8 nM; in data set [1], more than 10000 nM; in data set [2], more than 10000 nM; at FGFR3 (h), 3.98 nM; on FGFR1 (h) it was 2.19 nM. In data set [3], the “BAF3-FGFR4 pIC50” value is 6.73.
In the case of `Cn1cc(-c2cnc3ccc(N(Cc4ncc[nH]4)c4cc(F)cc(F)c4)nc3n2)cn1` [Compound 27], the IC50 at KDR (h) is 501 nM; in data set [1] (setting [4]), more than 10000 nM; in data set [2] (setting [4]), more than 10000 nM; at FGFR3 (h), 3.89 nM; at FGFR1 (h), 19.1 nM. In data set [3], the “BAF3-FGFR4 pIC50” value amounted to 6.09.
For `COc1cc(OC)c(F)c(N(CCNC(C)C)c2ccc3ncc(-c4cnn(C)c4)nc3n2)c1F` [Compound 5], the melting point turned out to be 183 °C. In addition, on KDR (h), the IC50 was 79.4 nM. Also, the IC50 in data set [1] (setting [4]) is 6310 nM. In data set [2] (setting [4]), the IC50 was more than 10000 nM. Further, the IC50 at FGFR3 (h) is 1.58 nM. Moreover, at FGFR1 (h), the IC50 was 1.58 nM. The “BAF3-FGFR4 pIC50” value in data set [3] was approximately 8.21.
As for `COc1cc(OC)c(F)c(/N=c2\ccc3ncc(-c4cnn(C)c4)nc3n2CCCN2CCCC2=O)c1F` [Compound 55], the melting point stood at 227 °C. The IC50 on KDR (h) was 2.82 nM. Besides, in data set [1] (setting [4]), the IC50 is 7760 nM. For the same compound, the IC50 at FGFR3 (h) is 0.49 nM. The IC50 at FGFR1 (h) was 0.603 nM. In data set [3], the “BAF3-FGFR4 pIC50” value came to 7.71.
As for `COc1cc(OC)cc(N(CC(O)C(F)(F)F)c2ccc3ncc(-c4cnn(C)c4)nc3n2)c1` (single isomer, unassigned) [Compound 33], the melting point was determined as 208 °C. Moreover, on KDR (h), the IC50 is 75.9 nM. In addition, the IC50 in data set [1] (setting [4]) was more than 10000 nM. Besides, at FGFR3 (h), the IC50 was 0.708 nM. In addition, the IC50 at FGFR1 (h) is 0.871 nM. Also, in data set [3], the “BAF3-FGFR4 pIC50” value is reported as approximately 7.03.
Compound `COc1cc(OC)c(F)c(N(Cc2ncccn2)c2ccc3ncc(-c4cnn(C)c4)nc3n2)c1` [Compound 9] displayed a melting point of 227 °C. Further, the IC50 at KDR (h) is 50.1 nM. Also, the IC50 in data set [1] was more than 10000 nM. Besides, in data set [2], the IC50 was more than 10000 nM. The IC50 on FGFR3 (h) was 15.8 nM. At FGFR1 (h), the IC50 is 5.62 nM. For the same compound, the “BAF3-FGFR4 pIC50” value in data set [3] was found to be 6.79.
In turn, `COc1cc(O)cc(N(Cc2ncc[nH]2)c2ccc3ncc(-c4cnn(C)c4)nc3n2)c1` [Compound 103] had a melting point of 172 °C. Further, the IC50 at KDR (h) was 5.37 nM. Also, in data set [1] (setting [4]), the IC50 was more than 8510 nM. At FGFR3 (h), the IC50 was 0.417 nM. Also, the IC50 at FGFR1 (h) was 0.339 nM. Also, the “BAF3-FGFR4 pIC50” value in data set [3] is approximately 7.43.
